US10167262B2, “Herbicidal substituted 3-arylpyrazoles” (FMC CORPORATION, priority 2014, dated 2019)
Where two headings read alike, the source gives them in different places.

Experiments:
Experiment in all cases: Test C pre-/postemergence greenhouse test, plant response rating 0-100
Format in all cases: in vivo
[1] = system: Italian ryegrass (Lolium multiflorum); details: Lolium multiflorum; for pest or weed control at 62 g/ha: 62 g ai/ha; for pest or weed control at 125 g/ha: 125 g ai/ha; for pest or weed control at 250 g/ha: 250 g ai/ha
In short: (§1)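 Pre-emergence soil and post-emergence foliar sprays were applied simultaneously to seeded loam–sand pots and to 1–4-leaf plants in peat medium; greenhouse holding lasted 13–15 days, then plants were scored visually from 0 (no effect) to 100 (complete control).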

[2] = system: blackgrass (Alopecurus myosuroides); details: Alopecurus myosuroides; for pest or weed control at 62 g/ha: 62 g ai/ha; for pest or weed control at 125 g/ha: 125 g ai/ha; for pest or weed control at 250 g/ha: 250 g ai/ha
In short: as §1

corn (Zea mays) = details: Zea mays; for Corn plant response rating (crop injury, 0 = no effect, 100 = complete kill) at 250 g/ha: 250 g ai/ha
In short: as §1

[3] = system: galium (catchweed bedstraw, Galium aparine); details: Galium; for pest or weed control at 62 g/ha: 62 g ai/ha; for pest or weed control at 125 g/ha: 125 g ai/ha; for pest or weed control at 250 g/ha: 250 g ai/ha
In short: as §1

[4] = system: lambsquarters (Chenopodium album); details: Chenopodium album; for pest or weed control at 62 g/ha: 62 g ai/ha; for pest or weed control at 125 g/ha: 125 g ai/ha; for pest or weed control at 250 g/ha: 250 g ai/ha
In short: as §1

[5] = system: large (Lg) crabgrass (Digitaria sanguinalis); details: Digitaria sanguinalis; for pest or weed control at 62 g/ha: 62 g ai/ha; for pest or weed control at 125 g/ha: 125 g ai/ha; for pest or weed control at 250 g/ha: 250 g ai/ha
In short: as §1

[6] = system: morningglory (Ipomoea coccinea); details: Ipomoea; for pest or weed control at 62 g/ha: 62 g ai/ha; for pest or weed control at 125 g/ha: 125 g ai/ha; for pest or weed control at 250 g/ha: 250 g ai/ha
In short: as §1

[7] = system: pigweed (Amaranthus retroflexus); details: Amaranthus retroflexus; for pest or weed control at 62 g/ha: 62 g ai/ha; for pest or weed control at 125 g/ha: 125 g ai/ha; for pest or weed control at 250 g/ha: 250 g ai/ha
In short: as §1

[8] = system: ragweed (common ragweed, Ambrosia elatior); details: Ambrosia artemisiifolia; for pest or weed control at 62 g/ha: 62 g ai/ha; for pest or weed control at 125 g/ha: 125 g ai/ha; for pest or weed control at 250 g/ha: 250 g ai/ha
In short: as §1

soybean (Glycine max) = details: Glycine max; for plant injury at 62 g/ha: 62 g ai/ha; for plant injury at 125 g/ha: 125 g ai/ha; for plant injury at 250 g/ha: 250 g ai/ha
In short: as §1

[9] = system: velvetleaf (Abutilon theophrasti); details: Abutilon theophrasti; for pest or weed control at 62 g/ha: 62 g ai/ha; for pest or weed control at 125 g/ha: 125 g ai/ha; for pest or weed control at 250 g/ha: 250 g ai/ha
In short: as §1

[10] = system: yellow nutsedge (Cyperus esculentus); details: Cyperus; for pest or weed control at 62 g/ha: 62 g ai/ha; for pest or weed control at 125 g/ha: 125 g ai/ha; for pest or weed control at 250 g/ha: 250 g ai/ha
In short: as §1

[11] = post-emergence, Postemergence, read-out: Plant response rating (0 to 100), Ryegrass, Italian
[12] = post-emergence, Postemergence, scale 0 to 100
[13] = post-emergence, Postemergence, 500 g ai/ha, scale 0 to 100
[14] = pre-emergence, Preemergence, read-out: Plant response rating, Ryegrass, Italian
[15] = pre-emergence, Preemergence, read-out: Plant response rating, Blackgrass
[16] = pre-emergence, Preemergence, 31 g ai/ha
[17] = post-emergence, Postemergence, read-out: Plant response rating (0 to 100), Galium
[18] = pre-emergence, Preemergence, read-out: Plant response rating, Galium
[19] = post-emergence, Postemergence, read-out: Plant response rating (0 to 100), Lambsquarters
[20] = pre-emergence, Preemergence, read-out: Plant response rating, Lambsquarters
[21] = post-emergence, Postemergence, read-out: Plant response rating (0 to 100), Crabgrass, Large
[22] = pre-emergence, Preemergence, read-out: Plant response rating, Crabgrass, Large
[23] = post-emergence, Postemergence, read-out: Plant response rating (0 to 100), Morningglory
[24] = pre-emergence, Preemergence, read-out: Plant response rating, Morningglory
[25] = post-emergence, Postemergence, read-out: Plant response rating (0 to 100), Pigweed
[26] = pre-emergence, Preemergence, read-out: Plant response rating, Pigweed
[27] = post-emergence, Postemergence, read-out: Plant response rating (0 to 100), Ragweed
[28] = pre-emergence, Preemergence, read-out: Plant response rating, Ragweed
[29] = post-emergence, Postemergence, read-out: Plant response rating (0 to 100), Soybean
[30] = pre-emergence, Preemergence, read-out: Plant response rating, Soybean
[31] = post-emergence, Postemergence, read-out: Plant response rating (0 to 100), Velvetleaf
[32] = pre-emergence, Preemergence, read-out: Plant response rating, Velvetleaf
[33] = post-emergence, Postemergence, read-out: Plant response rating (0 to 100), Nutsedge, Yellow
[34] = pre-emergence, Preemergence, read-out: Plant response rating, Nutsedge, Yellow

## O=C(c1ccccc1)c1cn(CO)nc1-c1cc(Cl)cc(Cl)c1 [Compound 15, [3-(3,5-dichlorophenyl)-1-(hydroxymethyl)-1H-pyrazol-4-yl]phenylmethanone]
[1]; [11]
  pest or weed control at 62 g/ha: 0%
  pest or weed control at 125 g/ha: 0%
[1]; [12]
  pest or weed control at 250 g/ha: 0%
[1]; [13]
  pest or weed control at 500 g/ha: 0%
[1]; [14]
  pest or weed control at 62 g/ha: 0%
  pest or weed control at 125 g/ha: 0%
[1]; pre-emergence, Preemergence
  pest or weed control at 250 g/ha: 0%
[2]; post-emergence, Postemergence, read-out: Plant response rating (0 to 100), Blackgrass
  pest or weed control at 62 g/ha: 0%
[2]; post-emergence, Postemergence, scale 0 to 100, read-out: Plant response rating, Blackgrass
  pest or weed control at 125 g/ha: 0%
[2]; [12]
  pest or weed control at 250 g/ha: 0%
[2]; [13]
  pest or weed control at 500 g/ha: 0%
[2]; pre-emergence, Preemergence, 31 g ai/ha, read-out: Plant response rating, Blackgrass
  pest or weed control at 31 g/ha: 0%
[2]; [15]
  pest or weed control at 62 g/ha: 0%
  pest or weed control at 125 g/ha: 0%
[2]; pre-emergence, Preemergence
  pest or weed control at 250 g/ha: 0%
Corn (Zea mays); post-emergence, Postemergence, 62 g ai/ha
  plant injury at 62 g/ha: 0%
Corn (Zea mays); post-emergence, Postemergence, 125 g ai/ha
  plant injury at 125 g/ha: 0%
Corn (Zea mays); [12]
  Corn plant response rating (crop injury, 0 = no effect, 100 = complete kill) at 250 g/ha: 0%
Corn (Zea mays); [13]
  Corn plant response rating (crop injury, 0 = no effect, 100 = complete kill) at 500 g/ha: 0%
Corn (Zea mays); [16]
  Corn plant response rating (crop injury, 0 = no effect, 100 = complete kill) at 31 g/ha: 0%
Corn (Zea mays); pre-emergence, Preemergence, 62 g ai/ha
  Corn plant response rating (crop injury, 0 = no effect, 100 = complete kill) at 62 g/ha: 0%
Corn (Zea mays); pre-emergence, Preemergence, 125 g ai/ha
  Corn plant response rating (crop injury, 0 = no effect, 100 = complete kill) at 125 g/ha: 0%
Corn (Zea mays); pre-emergence, Preemergence
  Corn plant response rating (crop injury, 0 = no effect, 100 = complete kill) at 250 g/ha: 0%
[3]; [17]
  pest or weed control at 62 g/ha: 0%
  pest or weed control at 125 g/ha: 0%
[3]; [12]
  pest or weed control at 250 g/ha: 10%
[3]; [13]
  pest or weed control at 500 g/ha: 45%
[3]; pre-emergence, Preemergence, 31 g ai/ha, read-out: Plant response rating, Galium
  pest or weed control at 31 g/ha: 0%
[3]; [18]
  pest or weed control at 62 g/ha: 0%
  pest or weed control at 125 g/ha: 0%
[3]; pre-emergence, Preemergence
  pest or weed control at 250 g/ha: 0%
[4]; [19]
  pest or weed control at 62 g/ha: 75%
  pest or weed control at 125 g/ha: 80%
[4]; [12]
  pest or weed control at 250 g/ha: 80%
[4]; [13]
  pest or weed control at 500 g/ha: 90%
[4]; [16]
  pest or weed control at 31 g/ha: 100%
[4]; [20]
  pest or weed control at 62 g/ha: 100%
  pest or weed control at 125 g/ha: 100%
[4]; pre-emergence, Preemergence
  pest or weed control at 250 g/ha: 100%
[5]; [21]
  pest or weed control at 62 g/ha: 0%
  pest or weed control at 125 g/ha: 0%
[5]; [12]
  pest or weed control at 250 g/ha: 0%
[5]; [13]
  pest or weed control at 500 g/ha: 0%
[5]; pre-emergence, Preemergence, 31 g ai/ha, read-out: Plant response rating, Crabgrass, Large
  pest or weed control at 31 g/ha: 0%
[5]; [22]
  pest or weed control at 62 g/ha: 0%
  pest or weed control at 125 g/ha: 0%
[5]; pre-emergence, Preemergence
  pest or weed control at 250 g/ha: 0%
[6]; [23]
  pest or weed control at 62 g/ha: 0%
  pest or weed control at 125 g/ha: 0%
[6]; [12]
  pest or weed control at 250 g/ha: 10%
[6]; [13]
  pest or weed control at 500 g/ha: 20%
[6]; [16]
  pest or weed control at 31 g/ha: 0%
[6]; [24]
  pest or weed control at 62 g/ha: 0%
  pest or weed control at 125 g/ha: 0%
[6]; pre-emergence, Preemergence
  pest or weed control at 250 g/ha: 0%
[7]; [25]
  pest or weed control at 62 g/ha: 90%
  pest or weed control at 125 g/ha: 100%
[7]; [12]
  pest or weed control at 250 g/ha: 100%
[7]; [13]
  pest or weed control at 500 g/ha: 100%
[7]; [16]
  pest or weed control at 31 g/ha: 100%
[7]; [26]
  pest or weed control at 62 g/ha: 100%
  pest or weed control at 125 g/ha: 100%
[7]; pre-emergence, Preemergence
  pest or weed control at 250 g/ha: 100%
[8]; [27]
  pest or weed control at 62 g/ha: 60%
  pest or weed control at 125 g/ha: 75%
[8]; [12]
  pest or weed control at 250 g/ha: 85%
[8]; [13]
  pest or weed control at 500 g/ha: 85%
[8]; [28]
  pest or weed control at 62 g/ha: 35%
  pest or weed control at 125 g/ha: 95%
[8]; pre-emergence, Preemergence
  pest or weed control at 250 g/ha: 100%
Soybean (Glycine max); [29]
  plant injury at 62 g/ha: 0%
  plant injury at 125 g/ha: 0%
Soybean (Glycine max); [12]
  plant injury at 250 g/ha: 0%
Soybean (Glycine max); [13]
  plant injury at 500 g/ha: 5%
Soybean (Glycine max); [30]
  plant injury at 62 g/ha: 0%
  plant injury at 125 g/ha: 0%
Soybean (Glycine max); pre-emergence, Preemergence
  plant injury at 250 g/ha: 0%
[9]; [31]
  pest or weed control at 62 g/ha: 80%
  pest or weed control at 125 g/ha: 80%
[9]; [12]
  pest or weed control at 250 g/ha: 90%
[9]; [13]
  pest or weed control at 500 g/ha: 90%
[9]; [32]
  pest or weed control at 62 g/ha: 60%
  pest or weed control at 125 g/ha: 100%
[9]; pre-emergence, Preemergence
  pest or weed control at 250 g/ha: 100%
[10]; [33]
  pest or weed control at 62 g/ha: 0%
  pest or weed control at 125 g/ha: 0%
[10]; [12]
  pest or weed control at 250 g/ha: 0%
[10]; [13]
  pest or weed control at 500 g/ha: 0%
[10]; [16]
  pest or weed control at 31 g/ha: 0%
[10]; [34]
  pest or weed control at 62 g/ha: 0%
  pest or weed control at 125 g/ha: 0%
[10]; pre-emergence, Preemergence
  pest or weed control at 250 g/ha: 0%
